Where two headings read alike, the source gives them in different places.
Target: T1, human CA-II (Homo sapiens, UniProt P00918)
T1 construct: purchased Sigma-Aldrich C6165
Assay: Carbonic Anhydrase-II (CA-II) Fluorimetric Assay-IC50 Determination
Assay type: biochemical
Settings: for inhibition at 0.01 µM: at 10 nM (c7); for inhibition at 0.01 µM / inhibition at 0.1 µM: read-out: CA-II % inhibition at concentration of column 7; for inhibition at 0.1 µM: at 100 nM (c7)
Description: Carbonic Anhydrase-II (CA-II) Fluorimetric Assay-IC50 Determination
Compounds were diluted in DMSO at the concentration of 1 mM, then 50 μM and transferred to a 96-well plate for further dilutions (1:3 dilution, 11 points) in duplicate. Highest final concentration of compound in this CA-II Fluorimetric assay is 1 μM. Assays were conducted in a final volume of 100 μL in 50 mM Tris/HCl (pH 7.6), 100 mM Na2SO4 and 0.005% Tween-20 in a 96-well black assay plate. Fluorescein diacetate was used as the substrate. Enzyme inhibition was determined by pipetting 8 μL of human CA-II (5 nM, from Sigma-Aldrich, product #: C6165) into assay plate contained 2 μL of compound and 2 μL of substrate (10 μM) in 88 μL of assay buffer. The rate of the hydrolysis of fluorescein diacetate were measured spectrophometrically at 488 nm (excitation), 538 nm (emission) and 530 nm (cutoff) using a Molecular Devices SpectraMax M2 fluorescence reader at 25° C.

[1] = given instead of Kd (ND), read-out: CA-II IC50
[2] = Kd ND, IC50 given instead, read-out: CA-II IC50 (where Kd is ND)

SMILES | inhibition at 0.01 µM | inhibition at 0.1 µM | IC50 [1] | also measured
CC1(c2ccccc2)CN(C(=O)c2nc(Cc3ccccc3)n(-c3ccc(S(N)(=O)=O)cc3)n2)CCO1 (centres unmarked) [Example R-46, 4-{5-benzyl-3-[(2-methyl-2-phenylmorpholin-4-yl)carbonyl]-1H-124-triazol-1-yl}benzenesulfonamide] | 96% |  |  | 
NS(=O)(=O)c1ccc(-n2nc(C(=O)N3CCOCC3)nc2Cc2ccccc2)cc1 [Example R-32, 4-[5-benzyl-3-(morpholin-4-ylcarbonyl)-1H-124-triazol-1-yl]benzenesulfonamide] |  | 98% | 3.56 nM | 
CCCN(CC1CCCO1)C(=O)c1nc(Cc2ccccc2)n(-c2ccc(S(N)(=O)=O)cc2)n1 (centres unmarked) [Example R-95, 1-[4-(aminosulfonyl)phenyl]-5-benzyl-N-propyl-N-(tetrahydrofuran-2-ylmethyl)-1H-124-triazole-3-carboxamide] |  |  |  | IC50 [2]: 3.35 nM
CN(Cc1n[nH]c2c1CCCC2)C(=O)c1nc(Cc2ccccc2)n(-c2ccc(S(N)(=O)=O)cc2)n1 [Example R-44, 1-[4-(aminosulfonyl)phenyl]-5-benzyl-N-methyl-N-(4567-tetrahydro-1H-indazol-3-ylmethyl)-1H-124-triazole-3-carboxamide] | 93% |  |  | 
CCCc1cc(CN(C)C(=O)c2nc(Cc3ccccc3)n(-c3ccc(S(N)(=O)=O)cc3)n2)n[nH]1 [Example R-51, 1-[4-(aminosulfonyl)phenyl]-5-benzyl-N-methyl-N-[(5-propyl-1H-pyrazol-3-yl)methyl]-1H-124-triazole-3-carboxamide] | 97% |  |  | 
Cc1cc(C)n(CCN(C)C(=O)c2nc(Cc3ccccc3)n(-c3ccc(S(N)(=O)=O)cc3)n2)n1 [Example R-66, 1-[4-(aminosulfonyl)phenyl]-5-benzyl-N-[2-(35-dimethyl-1H-pyrazol-1-yl)ethyl]-N-methyl-1H-124-triazole-3-carboxamide] | 88% |  | 3.55 nM | 
NS(=O)(=O)c1ccc(-n2nc(C(=O)N3CCC(c4cccnc4)C3)nc2Cc2ccccc2)cc1 (centres unmarked) [Example R-69, 4-{5-benzyl-3-[(3-pyridin-3-ylpyrrolidin-1-yl)carbonyl]-1H-124-triazol-1-yl}benzenesulfonamide] | 97% |  | 3.49 nM | 
CN(CC1CCCCO1)C(=O)c1nc(Cc2ccccc2)n(-c2ccc(S(N)(=O)=O)cc2)n1 (centres unmarked) [Example R-106, 1-[4-(aminosulfonyl)phenyl]-5-benzyl-N-methyl-N-(tetrahydro-2H-pyran-2-ylmethyl)-1H-124-triazole-3-carboxamide] |  |  |  | IC50 [2]: 3.28 nM
CCN(Cc1ccccc1)C(=O)c1nc(Cc2ccccc2)n(-c2ccc(S(N)(=O)=O)cc2)n1 [Example R-102, 1-[4-(aminosulfonyl)phenyl]-N5-dibenzyl-N-ethyl-1H-124-triazole-3-carboxamide] |  |  |  | IC50 [2]: 3 nM
CCc1nc(CN(C)C(=O)c2nc(Cc3ccccc3)n(-c3ccc(S(N)(=O)=O)cc3)n2)no1 [Example R-70, 1-[4-(aminosulfonyl)phenyl]-5-benzyl-N-[(5-ethyl-124-oxadiazol-3-yl)methyl]-N-methyl-1H-124-triazole-3-carboxamide] | 94% |  | 3.06 nM | 
Cc1ncsc1CCN(C)C(=O)c1nc(Cc2ccccc2)n(-c2ccc(S(N)(=O)=O)cc2)n1 [Example R-65, 1-[4-(aminosulfonyl)phenyl]-5-benzyl-N-methyl-N-[2-(4-methyl-13-thiazol-5-yl)ethyl]-1H-124-triazole-3-carboxamide] | 90% |  |  | 
Cc1ccc(CN(C)C(=O)c2nc(Cc3ccccc3)n(-c3ccc(S(N)(=O)=O)cc3)n2)cc1 [Example R-38, 1-[4-(aminosulfonyl)phenyl]-5-benzyl-N-methyl-N-(4-methylbenzyl)-1H-124-triazole-3-carboxamide] |  | 100% | 3.13 nM | 
CN(Cc1ccccc1)C(=O)c1nc(Cc2ccccc2)n(-c2ccc(S(N)(=O)=O)cc2)n1 [Example R-109, 1-[4-(aminosulfonyl)phenyl]-N5-dibenzyl-N-methyl-1H-124-triazole-3-carboxamide] |  |  |  | IC50 [2]: 3.61 nM
CN(C(=O)c1nc(Cc2ccccc2)n(-c2ccc(S(N)(=O)=O)cc2)n1)C1CCCC1 [Example R-30, 1-[4-(aminosulfonyl)phenyl]-5-benzyl-N-cyclopentyl-N-methyl-1H-124-triazole-3-carboxamide] |  | 100% | 2.45 nM | 
NS(=O)(=O)c1ccc(-n2nc(C(=O)N3CC4CCCC3C4)nc2Cc2ccccc2)cc1 (centres unmarked) [Example R-26, 4-[3-(6-azabicyclo[3.2.1]oct-6-ylcarbonyl)-5-benzyl-1H-124-triazol-1-yl]bezenesulfonamide] |  | 99% | 2.84 nM | 
CN(CCOc1ccccc1)C(=O)c1nc(Cc2ccccc2)n(-c2ccc(S(N)(=O)=O)cc2)n1 [Example R-42, 1-[4-(aminosulfonyl)phenyl]-5-benzyl-N-methyl-N-(2-phenoxyethyl)-1H-124-triazole-3-carboxamide] |  | 98% | 3.78 nM | 
NS(=O)(=O)c1ccc(-n2nc(C(=O)N3CCC(c4ccccn4)C3)nc2Cc2ccccc2)cc1 (centres unmarked) [Example R-55, 4-(5-benzyl-3-[(3-pyridin-2-ylpyrrolidin-1-yl)carbonyl]-1H-124-triazol-1-yl)benzenesulfonamide] | 97% |  |  | 
NS(=O)(=O)c1ccc(-n2nc(C(=O)N3C[C@@H](F)[C@H](F)C3)nc2Cc2ccccc2)cc1 [Example R-111, 4-(5-benzyl-3-{[(3R4R)-34-difluoropyrrolidin-1-yl]carbonyl}-1H-124-triazol-1-yl)benzenesulfonamide] |  |  |  | IC50 [2]: 3.14 nM
CN(CCc1cn[nH]c1)C(=O)c1nc(Cc2ccccc2)n(-c2ccc(S(N)(=O)=O)cc2)n1 [Example R-62, 1-[4-(aminosulfonyl)phenyl]-5-benzyl-N-methyl-N-[2-(1H-pyrazol-4-yl)ethyl]-1H-124-triazole-3-carboxamide] | 96% |  |  | 
CCCCN(CCC)C(=O)c1nc(Cc2ccccc2)n(-c2ccc(S(N)(=O)=O)cc2)n1 [Example R-36, 1-[4-(aminosulfonyl)phenyl]-5-benzyl-N-butyl-N-propyl-1H-124-triazole-3-carboxamide] |  | 100% | 3.12 nM | 
NS(=O)(=O)c1ccc(-n2nc(C(=O)NC3Cc4ccccc4C3)nc2Cc2ccccc2)cc1 [Example R-33, 1-[4-(aminosulfonyl)phenyl]-5-benzyl-N-(23-dihydro-1H-inden-2-yl)-1H-124-triazole-3-carboxamide] |  | 101% |  | 
Cc1nc(CN(C)C(=O)c2nc(Cc3ccccc3)n(-c3ccc(S(N)(=O)=O)cc3)n2)cs1 [Example R-60, 1-[4-(aminosulfonyl)phenyl]-5-benzyl-N-methyl-N-[(2-methyl-13-thiazol-4-yl)methyl]-1H-124-triazole-3-carboxamide] | 92% |  |  | 
NS(=O)(=O)c1ccc(-n2nc(C(=O)N3CCc4nocc4C3)nc2Cc2ccccc2)cc1 [Example R-57, 4-[5-benzyl-3-(67-dihydroisoxazolo[43-c]pyridin-5(4H)-ylcarbonyl)-1H-124-triazol-1-yl]benzenesulfonamide] | 96% |  |  | 
CCN(CC)CCN(CC)C(=O)c1nc(Cc2ccccc2)n(-c2ccc(S(N)(=O)=O)cc2)n1 [Example R-39, 1-[4-(aminosulfonyl)phenyl]-5-benzyl-N-[2-(diethylamino)ethyl]-N-ethyl-1H-124-triazole-3-carboxamide] |  | 97% | 3.62 nM | 
NS(=O)(=O)c1ccc(-n2nc(C(=O)N3CC(CO)C(c4ccccn4)C3)nc2Cc2ccccc2)cc1 (centres unmarked) [Example R-59, 4-(5-benzyl-3-{[(3R4R)-3-(hydroxymethyl)-4-pyridin-2-ylpyrrolidin-1-yl]carbonyl}-1H-124-triazol1-yl)benzenesulfonamide] | 97% |  |  | 
C[C@@H]([C@@H](O)c1ccccc1)N(C)C(=O)c1nc(Cc2ccccc2)n(-c2ccc(S(N)(=O)=O)cc2)n1 [Example R-47, 1-[4-(aminosulfonyl)phenyl]-5-benzyl-N-[(1S2S)-2-hydroxy-1-methyl-2-phenylethyl]-N-methyl-1H-124-triazole-3-carboxamide] | 90% |  |  | 
Cc1csc(CN(C)C(=O)c2nc(Cc3ccccc3)n(-c3ccc(S(N)(=O)=O)cc3)n2)n1 [Example R-56, 1-[4-(aminosulfonyl)phenyl]-5-benzyl-N-methyl-N-[(4-methyl-13-thiazol-2-yl)methyl]-1H-124-triazole-3-carboxamide] | 95% |  |  | 
NS(=O)(=O)c1ccc(-n2nc(C(=O)NCCNc3ccccn3)nc2Cc2ccccc2)cc1 [Example R-35, 1-[4-(aminosulfonyl)phenyl]-5-benzyl-N-[2-(pyridin-2-ylamino)ethyl]-1H-124-triazole-3-carboxamide] |  | 101% |  | 
CC(C)(C)N(CCC#N)C(=O)c1nc(Cc2ccccc2)n(-c2ccc(S(N)(=O)=O)cc2)n1 [Example R-96, 1-[4-(aminosulfonyl)phenyl]-5-benzyl-N-(tert-butyl)-N-(2-cyanoethyl)-1H-124-triazole-3-carboxamide] |  |  |  | IC50 [2]: 3.34 nM
CC(C)CN(CC(C)C)C(=O)c1nc(Cc2ccccc2)n(-c2ccc(S(N)(=O)=O)cc2)n1 [Example R-40, 1-[4-(aminosulfonyl)phenyl]-5-benzyl-NN-diisobutyl-1H-124-triazole-3-carboxamide] |  | 98% | 3.34 nM | 

Source: patent publication US20100256357A1, “HETEROCYCLES USEFUL AS INHIBITORS OF CARBONIC ANHYDRASE” (Agouron Pharmaceuticals, Inc., priority 2006, published 2010)
